Assay results published in patent publication US20160287609A1, “ROR GAMMA MODULATORS” (ETH ZÜRICH, priority 2013, published 2016).

biological target: T1, RORγ (Homo sapiens, UniProt P51449); test: Luciferase transfection assay: repression of RORγ transcriptional activity (MMP3 promoter reporter, dual luciferase); type: cell-based; conditions: 10 μM added to growth medium of transfected 3T3L1 cells; firefly/renilla luciferase ratio 48 h after transfection; average, n at least 6
T1 construct: the cells were transfected with an expression vector for full-length RORγ; expressed in transfected cells; host or cells: 3T3L1 (mouse pre-adipocyte) cells, pcDNA3 expression vector, CMV promoter
T1 sequence (P51449 1-518): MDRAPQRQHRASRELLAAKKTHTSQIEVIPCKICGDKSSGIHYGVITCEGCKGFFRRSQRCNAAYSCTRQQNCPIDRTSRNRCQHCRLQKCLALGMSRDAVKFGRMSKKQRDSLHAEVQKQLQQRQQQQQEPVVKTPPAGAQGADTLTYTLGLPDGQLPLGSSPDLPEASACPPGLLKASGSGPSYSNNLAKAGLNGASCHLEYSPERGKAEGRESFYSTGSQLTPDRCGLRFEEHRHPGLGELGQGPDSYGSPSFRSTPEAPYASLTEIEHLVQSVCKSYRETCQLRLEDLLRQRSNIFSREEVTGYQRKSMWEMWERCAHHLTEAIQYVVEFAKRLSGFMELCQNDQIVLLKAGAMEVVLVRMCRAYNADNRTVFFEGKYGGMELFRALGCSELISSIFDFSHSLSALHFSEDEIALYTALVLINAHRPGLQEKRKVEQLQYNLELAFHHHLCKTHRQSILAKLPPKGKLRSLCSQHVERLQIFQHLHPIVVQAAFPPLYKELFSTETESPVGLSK
Experimental: Adipocyte-like 3T3L1 cells grown to 60-70% confluence in 24 well dishes were used for the assay. The cells were transfected with the reporter gene (pMMP3-pGL3) or the respective empty pGL3 vector as control at a concentration of 0.1 μg/well. The pMMP3-pGL3 reporter expresses the luciferase gene under the control of the promoter of the RORγ target gene matrix metalloproteinase 3 (MMP3). In addition the cells were transfected with an expression vector for full-length RORγ or the respective empty pcDNA3 control vector at 0.1 ug/well. The pCMV-Renilla plasmid served as internal control to normalize for transfection efficacy at a concentration of 0.05 μg/well. All plasmids were transfected at the same time into the cell using the transfection reagent Fugene according to the manufacture's protocol (Promega). […] Firefly as well as renilla luciferase activity was measured 48 h after transfection using the Dual Luciferase Detection System (Promega) following the instructions provided by the manufacturer.
Compounds 13a, 13b and 14a were tested for their ability to inhibit gene transcription induced by the orphan nuclear receptor RORγ using a dual luciferase assay. […] This system allows to determine if a substance of interest is actively repressing the transcriptional activity of RORγ by using reduced luciferase activity as a read-out (FIG. 2).
For the actual experiment 60-70% confluent 3T3L1 pre-adipocytes were transfected with the MMP3 reporter, RORγ and the normalization vector expressing renilla luciferase. […] 48 h after introducing the plasmids, the cells were harvested, lysed and the activity of firefly as well as renilla luciferase measured in each well. The efficacy of a substance to repress RORγ activity was calculated from the ratio of firefly over renilla luciferase activity and normalization to the control wells and the DMSO treated wells. […]

SMILES | transcriptional activity of RORγ, as % of the intensity measured in the presence of DMSO [%]
C[C@H](C[C@@H](O)C(=O)O)C1C[C@H](O)[C@H]2C3C(CC[C@]12C)[C@@]1(C)CC[C@@H](O)C[C@H]1C[C@H]3O (stereo partly drawn) [Compound 13a, 3α,7α,15α,(23R)-tetrahydroxy-5β-cholanoic acid] | 52
C[C@H](C[C@@H](O)C(=O)NCCS(=O)(=O)O)C1C[C@H](O)[C@H]2C3C(CC[C@]12C)[C@@]1(C)CC[C@@H](O)C[C@H]1C[C@H]3O (stereo in doubt) [Compound 14a, 3α,7β,15α,(23R)-tetrahydroxy-5β-24-oxocholanyl-amino ethansulfonic acid] | 56
C[C@H](C[C@H](O)C(=O)O)C1C[C@H](O)[C@H]2C3C(CC[C@]12C)[C@@]1(C)CC[C@@H](O)C[C@H]1C[C@H]3O (stereo partly drawn) [Compound 13b, 3α,7α, 15α,(23S)-tetrahydroxy-5β-cholanoic acid] | 57
